Earlier results on two molecules are cited in patent US20140275257A1, “N-ACETYL CYSTEINE COMPOSITIONS IN THE TREATMENT OF SYSTEMIC LUPUS ERYTHEMATOSUS” (Foundation for the State University of New York, priority 2013, published 2014).

For series [1] the following is noted: effects counter to those reported for NAC; Samstrand et al (1999); cited from earlier work.
Series [2] relates to MRL/lpr lupus mouse model. The following applies: cited from earlier work.
Another series concerns human SLE patients. The conditions noted are these: patients resistant or intolerant to conventional medications; Fernandez et al. (2006); cited from earlier work.
The subject of series [3] is CD4+/CD25+/FoxP3+ T cells. The conditions noted are these: Lai et al. (2010); cited from earlier work.

As to `CC(=O)N[C@@H](CSSC[C@H](NC(C)=O)C(=O)O)C(=O)O` [oxidized form of NAC], the “bioactive at doses less than NAC” value in series [1] is listed as 10-100 fold.

For the molecule `CO[C@H]1C[C@@H]2CC[C@@H](C)[C@@](O)(O2)C(=O)C(=O)N2CCCC[C@H]2C(=O)O[C@H]([C@H](C)C[C@@H]2CC[C@@H](O)[C@H](OC)C2)CC(=O)[C@H](C)/C=C(\C)[C@@H](O)[C@@H](OC)C(=O)[C@H](C)C[C@H](C)/C=C/C=C/C=C/1C` [rapamycin], the “survival of lupusprone MRL/lpr lupus mouse model” value in series [2] (Warner et al. (1994)) is “prolonged survival”. In series [2] (blockade of mTOR), the “disease activity in murine lupus” value is on record as “improves disease activity”. Moreover, in the series with human SLE patients, the “disease activity in human SLE patients” value is recorded as “improves disease activity”. Also, the “CD4+/CD25+/FoxP3+ T cells in patients with SLE” value in series [3] was “expanded”.
